Data published in patent US20090068290A1, “BIFEPRUNOX DOSES FOR TREATING SCHIZOPHRENIA” (priority 2006, published 2009).

Columns and labels:
[1] = Pooled metabolic analysis, 6-week studies: lipid profile; conditions: endpoint, 6-week studies, BX total, OLZ 15 mg
Text: (§1) OBJECTIVE: To examine the metabolic effects of bifeprunox in patients with acute and stable schizophrenia.
(§2) METHODS: Metabolic data was compiled from one 6-month and four 6-week studies (i.e., a treatment period) of bifeprunox in patients with stable and acute schizophrenia, respectively. In the 6-month study, patients received bifeprunox (n=331) or placebo (PBO) (n=166). […] Metabolic evaluations included body weight, body mass index (BMI), plasma glucose and lipid profiles. Fasting glucose and lipid values were assessed in one 6-week study and in the 6-month study. Triglyceride:HDL ratio (TG:HDL) was calculated as a marker of insulin resistance. No statistical analyses were performed; only descriptive statistics are presented.

[2] = Pooled metabolic analysis, 6-week studies: body weight; conditions: 6-week placebo controlled trials, BX total doses, RISP 6 mg, OLZ 15 mg, HAL 10 mg; for Weight, Mean (SD) change from baseline: endpoint
Text: as §1, §2

CYP2C9, CYP3A4, CYP2D6 = assay: Metabolism and drug interactions of bifeprunox; conditions: in vivo
Text: The objective of this study is to assess the pharmacokinetics (PK) of bifeprunox. The PK of bifeprunox in healthy subjects were investigated based on a pooled analysis of PK parameters from 21 clinical pharmacology studies. The pooled analysis included PK profiles after single and multiple doses to 132 and 399 subjects, respectively, and explored the potential effects of age, gender, body weight, and race. In addition, PK in patients with schizophrenia were investigated using a population PK approach based on samples from 376 patients in phase II studies and 434 patients in phase III studies.

[3] = Pharmacokinetic interaction of lithium and bifeprunox in healthy male subjects; format: in vivo, human
Procedure: Because bifeprunox may be used in combination with the mood-stabilizing drug lithium for the treatment of patients with psychoses and mood disorders, the effect of multiple doses of bifeprunox on the pharmacokinetic (PK) profile of lithium was evaluated. Lithium has a narrow therapeutic index that can complicate therapy, and serum levels greater than 1.5 mmol/L carry a greater risk of lithium toxicity than do lower levels.
METHODS: This was a single center, double-blind, randomized, placebo-controlled, parallel-design study in 48 healthy male subjects. All subjects were to receive open-label lithium (450 mg) twice daily on days 1 through 8 and, provided serum levels were stable on days 5 through 7, again on days 9 through 20. Subjects whose serum levels were stable on days 5 through 7 were included in those randomized to receive, in addition to lithium 450 mg twice daily, either placebo or a rising dose of bifeprunox (0.025-40 mg) once daily on days 9 through 17, and placebo or bifeprunox 40 mg on days 18 through 21. Only a single morning dose of lithium 450 mg was administered on day 21. Lithium, steady-state Cmax, AUC over the dosing interval (0-t), and renal clearance (CL-R) values were compared between the bifeprunox and placebo groups using ANCOVA with baseline values of lithium measured on day 8 as covariate.

[4] = non-fasting, RISP 6 mg, HAL 10 mg
[5] = lithium 450 mg twice daily with bifeprunox up to 40 mg once daily, healthy male subjects

| SMILES | Total cholesterol, Mean change (SD) [1, 4] | Triglycerides, Mean change (SD) [1, 4] | ≧7% weight increase, (%) ([2]; baseline BMI 18.5-25 kg/m^2) | ≧7% weight decrease, (%) ([2]; baseline BMI All) | ≧7% weight increase, (%) ([2]; baseline BMI All) | Weight, Mean (SD) change from baseline ([2]; baseline BMI 18.5-25 kg/m^2) | Weight, Mean (SD) change from baseline ([2]; baseline BMI <18.5 kg/m^2) | Weight, Mean (SD) change from baseline ([2]; baseline BMI >25-30 kg/m^2) | Weight, Mean (SD) change from baseline ([2]; baseline BMI >30 kg/m^2) | Weight, Mean (SD) change from baseline ([2]; baseline BMI All) | ≧7% weight increase, (%) ([2]; baseline BMI <18.5 kg/m^2) | ≧7% weight increase, (%) ([2]; baseline BMI >25-30 kg/m^2) | ≧7% weight increase, (%) ([2]; baseline BMI >30 kg/m^2) | PK of narrow therapeutic index compound on co-administration with bifeprunox (CYP2C9, CYP3A4, CYP2D6) | further results |
| --- | --- | --- | --- | --- | --- | --- | --- | --- | --- | --- | --- | --- | --- | --- | --- |
| O=C(CCCN1CCC(O)(c2ccc(Cl)cc2)CC1)c1ccc(F)cc1 [HAL] | 0.1 (0.7) mg/dL | −2.7 (0.6) mg/dL | 7.1 | 2.0 | 4.0 | −0.0 (2.2) kg | 1.4 (1.3) kg | −1.1 (1.8) kg | 0.4 (2.1) kg | −0.1 (2.1) kg |  |  |  |  | ≧7% weight decrease, (%) ([2]; baseline BMI 18.5-25 kg/m^2): 3.6% |
| Cc1nc2n(c(=O)c1CCN1CCC(c3noc4cc(F)ccc34)CC1)CCCC2 [RISP] | −2.6 (0.8) mg/dL | −7.4 (1.4) mg/dL | 7.3 | 0.4 | 9.8 | 1.5 (2.2) kg | 0.9 (2.3) kg | 2.1 (3.2) kg | 1.6 (4.2) kg | 1.7 (3.3) kg | 20.0 | 13.3 | 8.5 |  | ≧7% weight decrease, (%) ([2]; baseline BMI >30 kg/m^2): 1.2% |
| CC(=O)CC(c1ccccc1)c1c(O)c2ccccc2oc1=O (centres unmarked) [warfarin, reference compound] |  |  |  |  |  |  |  |  |  |  |  |  |  | did not affect the PK of these compounds to any relevant extent |  |
| [Li] [lithium] |  |  |  |  |  |  |  |  |  |  |  |  |  | did not affect the PK of these compounds to any relevant extent | effect of co-administration of multiple doses of bifeprunox on lithium steady-state pharmacokinetics ([3]; human, in vivo): no clinically relevant effect; lithium renal clearance CL-R, treatment ratio (bifeprunox vs placebo group, geometric least square means) [3, 5]: 0.94; lithium steady-state AUC(0-t), treatment ratio (bifeprunox vs placebo group, geometric least square means) [3, 5]: 1.13; lithium steady-state Cmax, treatment ratio (bifeprunox vs placebo group, geometric least square means) [3, 5]: 1.11 |
| Cc1cc2c(s1)Nc1ccccc1N=C2N1CCN(C)CC1 [OLZ] | −0.7 (1.0) mg/dL | 24.6 (1.3) mg/dL | 22.7 |  |  | 2.1 (2.7) kg | 1.0 (1.9) kg | 2.3 (2.5) kg | 3.3 (4.0) kg | 2.4 (3.1) kg | 18.8 | 13.2 | 14.6 |  | Fasting HDL, Mean change (SD) ([1]; fasting): −1.4 (9.2) mg/dL; Fasting HDL, Percentage mean change ([1]; fasting): −2.9%; Fasting LDL, Mean change (SD) ([1]; fasting): −0.3 (28.6) mg/dL; Fasting LDL, Percentage mean change ([1]; fasting): −0.3%; Total cholesterol, Mean change (SD) ([1]; fasting): −4.0 (37.3) mg/dL; Total cholesterol, Percentage mean change ([1]; fasting): −2.0%; Triglycerides, Mean change (SD) ([1]; fasting): −9.2 (90.4) mg/dL; Triglycerides, Percentage mean change ([1]; fasting): −5.3% |
